Reference: patent US9302999B2, “Substituted triazoles as herbicides” (E. I. DU PONT DE NEMOURS AND COMPANY, priority 2012, dated 2016)

How the values were obtained:
Assay type in all cases: in vivo
[1] = test system: foxtail, green (green foxtail, Setaria viridis); assay: Test C pre-/postemergence: foxtail, green
Excerpt: (§1) Seeds of plant species selected from blackgrass (Alopecurus myosuroides), bromegrass, downy (downy bromegrass, Bromus tectorum), foxtail, green (green foxtail, Setaria viridis), ryegrass, Italian (Italian ryegrass, Lolium multiflorum), winter wheat (Triticum aestivum), wild oat (Avena fatua), galium (catchweed bedstraw, Galium aparine), bermudagrass (Cynodon dactylon), surinam grass (Brachiaria decumbens), cocklebur (common cocklebur, Xanthium strumarium), corn (Zea mays), large crabgrass (Digitaria sanguinalis), woolly cupgrass (Eriochloa villosa), foxtail, giant (giant foxtail, Setaria faberii), goosegrass (Eleusine indica), johnsongrass (Sorghum halepense), kochia (Kochia scoparia), lambsquarters (Chenopodium album), morningglory (Ipomoea coccinea), nightshade (eastern black nightshade, Solanum ptycanthum), nutsedge, yellow (yellow nutsedge, Cyperus esculentus), pigweed (Amaranthus retroflexus), ragweed (common ragweed, Ambrosia elation), soybean (Glycine max), common (oilseed) sunflower (Helianthus annuus), Russian thistle (Salsola kali) and velvetleaf (Abutilon theophrasti) were planted into a blend of loam soil and sand and treated preemergence with test chemicals formulated in a non-phytotoxic solvent mixture which included a surfactant.
(§2) At the same time, plants selected from these crop and weed species and also barley (winter barley, Hordeum vulgare), canarygrass (Phalaris minor), chickweed (common chickweed, Stellaria media) windgrass (Apera spica-venti) and deadnettle (henbit deadnettle, Lamium amplexicaule) were planted in pots containing Redi-Earth® planting medium (Scotts Company, 14111 Scottslawn Road, Marysville, Ohio 43041) comprising spaghnum peat moss, vermiculite, wetting agent and starter nutrients and treated with postemergence applications of test chemicals formulated in the same manner. Plants ranged in height from 2 to 18 cm (1- to 4-leaf stage) for postemergence treatments.
(§3) Treated plants and controls were maintained in a greenhouse for 13 to 15 days, after which time all species were compared to controls and visually evaluated. Plant response ratings, summarized in Table C, are based on a scale of 0 to 100 where 0 is no effect and 100 is complete control. A dash (-) response means no test result.

[2] = test system: bermudagrass (Cynodon dactylon); assay: Test C pre-/postemergence: bermudagrass
Excerpt: as §1, §2, §3

[3] = test system: surinam grass (Brachiaria decumbens); assay: Test C pre-/postemergence: surinam grass
Excerpt: as §1, §2, §3

[4] = test system: cocklebur (common cocklebur, Xanthium strumarium); assay: Test C pre-/postemergence: cocklebur
Excerpt: as §1, §2, §3

[5] = test system: goosegrass (Eleusine indica); assay: Test C pre-/postemergence: goosegrass
Excerpt: as §1, §2, §3

[6] = test system: nightshade (eastern black nightshade, Solanum ptycanthum); assay: Test C pre-/postemergence: nightshade; details: Preemergence
Excerpt: as §1, §2, §3

[7] = test system: common (oilseed) sunflower (Helianthus annuus); assay: Test C pre-/postemergence: sunflower; details: Preemergence
Excerpt: as §1, §2, §3

[8] = test system: barley (winter barley, Hordeum vulgare); assay: Test C postemergence: barley
Excerpt: as §2, §3

[9] = test system: canarygrass (Phalaris minor); assay: Test C postemergence: canarygrass
Excerpt: as §2, §3

[10] = test system: windgrass (Apera spica-venti); assay: Test C postemergence: windgrass
Excerpt: as §2, §3

[11] = test system: deadnettle (henbit deadnettle, Lamium amplexicaule); assay: Test C postemergence: deadnettle
Excerpt: as §2, §3

[12] = Postemergence, 31 g ai/ha, scale 0 to 100 (0 no effect, 100 complete control)
[13] = Postemergence, 125 g ai/ha, scale 0 to 100, 0 no effect, 100 complete control
[14] = Postemergence, 250 g ai/ha, scale 0 to 100
[15] = Preemergence, 31 g ai/ha, scale of 0 to 100, 0 is no effect, 100 is complete control
[16] = Preemergence, 62 g ai/ha, scale of 0 to 100, 0 is no effect, 100 is complete control
[17] = Preemergence, 125 g ai/ha, scale 0 to 100, 0 no effect, 100 complete control
[18] = Preemergence, 250 g ai/ha, scale 0 to 100, 0 no effect, 100 complete control
[19] = Postemergence, 62 g ai/ha, scale 0 to 100 (0 no effect, 100 complete control)
[20] = 31 g ai/ha, scale of 0 to 100, 0 is no effect, 100 is complete control
[21] = 62 g ai/ha, scale of 0 to 100, 0 is no effect, 100 is complete control
[22] = 125 g ai/ha, scale 0 to 100, 0 no effect, 100 complete control
[23] = 250 g ai/ha, scale 0 to 100, 0 no effect, 100 complete control
[24] = 31 g ai/ha, scale 0 to 100 (0 no effect, 100 complete control)
[25] = 62 g ai/ha, scale 0 to 100 (0 no effect, 100 complete control)

FC(F)(F)COc1nn(-c2ccc(C(F)(F)F)cc2)nc1Cc1ccnc(C(F)(F)F)c1 [Compound 14, 4-[[5-(2,2,2-trifluoroethoxy)-2-[4-(trifluoromethyl)phenyl]-2H-1,2,3-triazol-4-yl]methyl]-2-(trifluoromethyl)pyridine]
Plant response rating, Foxtail, Green [1, 12]: 70 | Plant response rating, Foxtail, Green [1, 13]: 90 | Plant response rating, Foxtail, Green [1, 14]: 90 | Plant response rating, Foxtail, Green [1, 15]: 80 | Plant response rating, Foxtail, Green [1, 16]: 100 | Plant response rating, Foxtail, Green [1, 17]: 100 | Plant response rating, Foxtail, Green [1, 18]: 100 | Plant response rating, Bermudagrass [2, 12]: 0 | Plant response rating, Bermudagrass [2, 19]: 15 | Plant response rating, Bermudagrass [2, 13]: 55 | Plant response rating, Bermudagrass [2, 14]: 65 | Plant response rating, Bermudagrass [2, 15]: 98 | Plant response rating, Bermudagrass ([2]; Preemergence, 62 g ai/ha, scale 0 to 100, 0 no effect, 100 complete control): 100 | Plant response rating, Bermudagrass [2, 17]: 100 | Plant response rating, Bermudagrass [2, 18]: 100 | Plant response rating, Surinam Grass [3, 12]: 5 | Plant response rating, Surinam Grass [3, 19]: 5 | Plant response rating, Surinam Grass [3, 13]: 30 | Plant response rating, Surinam Grass [3, 14]: 55 | Plant response rating, Surinam Grass [3, 15]: 20 | Plant response rating, Surinam Grass [3, 16]: 45 | Plant response rating, Surinam Grass [3, 17]: 60 | Plant response rating, Surinam Grass [3, 18]: 85 | Plant response rating, Cocklebur [4, 12]: 5 | Plant response rating, Cocklebur [4, 19]: 5 | Plant response rating, Cocklebur [4, 13]: 45 | Plant response rating, Cocklebur [4, 14]: 75 | Plant response rating, Cocklebur [4, 15]: 0 | Plant response rating, Cocklebur [4, 17]: 20 | Plant response rating, Cocklebur [4, 18]: 45 | Plant response rating, Goosegrass [5, 12]: 5 | Plant response rating, Goosegrass [5, 19]: 5 | Plant response rating, Goosegrass [5, 13]: 60 | Plant response rating, Goosegrass [5, 14]: 75 | Plant response rating, Goosegrass [5, 15]: 98 | Plant response rating, Goosegrass [5, 16]: 100 | Plant response rating, Goosegrass [5, 17]: 100 | Plant response rating, Goosegrass [5, 18]: 100 | Plant response rating, Nightshade [6, 20]: 55 | Plant response rating, Nightshade [6, 21]: 80 | Plant response rating, Nightshade [6, 22]: 95 | Plant response rating, Nightshade [6, 23]: 98 | Plant response rating, Sunflower [7, 20]: 0 | Plant response rating, Sunflower [7, 21]: 0 | Plant response rating, Sunflower [7, 22]: 0 | Plant response rating, Sunflower [7, 23]: 15 | Plant response rating, Barley [8, 24]: 30 | Plant response rating, Barley [8, 25]: 35 | Plant response rating, Barley [8, 22]: 50 | Plant response rating, Barley ([8]; 250 g ai/ha, scale 0 to 100): 50 | Plant response rating, Canarygrass [9, 24]: 55 | Plant response rating, Canarygrass [9, 25]: 80 | Plant response rating, Canarygrass [9, 22]: 85 | Plant response rating, Canarygrass ([9]; 250 g ai/ha, scale 0 to 100): 85 | Plant response rating, Windgrass [10, 24]: 70 | Plant response rating, Windgrass [10, 25]: 90 | Plant response rating, Windgrass [10, 22]: 95 | Plant response rating, Windgrass ([10]; 250 g ai/ha, scale 0 to 100): 95 | Plant response rating, Deadnettle [11, 24]: 98 | Plant response rating, Deadnettle [11, 25]: 98 | Plant response rating, Deadnettle [11, 22]: 100 | Plant response rating, Deadnettle ([11]; 250 g ai/ha, scale 0 to 100): 100

FC(F)(F)c1ccc(-n2nc(Cl)c(Cc3ccnc(C(F)(F)F)c3)n2)cc1 [Compound 28]
Plant response rating, Foxtail, Green [1, 12]: 30 | Plant response rating, Foxtail, Green [1, 19]: 70 | Plant response rating, Foxtail, Green [1, 13]: 70 | Plant response rating, Foxtail, Green [1, 14]: 85 | Plant response rating, Bermudagrass [2, 12]: 10 | Plant response rating, Bermudagrass [2, 19]: 15 | Plant response rating, Bermudagrass [2, 13]: 20 | Plant response rating, Bermudagrass [2, 14]: 25 | Plant response rating, Surinam Grass [3, 12]: 5 | Plant response rating, Surinam Grass [3, 19]: 10 | Plant response rating, Surinam Grass [3, 13]: 15 | Plant response rating, Surinam Grass [3, 14]: 15 | Plant response rating, Cocklebur [4, 12]: 10 | Plant response rating, Cocklebur [4, 19]: 15 | Plant response rating, Cocklebur [4, 13]: 20 | Plant response rating, Cocklebur [4, 14]: 25 | Plant response rating, Goosegrass [5, 12]: 20 | Plant response rating, Goosegrass [5, 19]: 20 | Plant response rating, Goosegrass [5, 13]: 25 | Plant response rating, Goosegrass [5, 14]: 45 | Plant response rating, Barley [8, 24]: 10 | Plant response rating, Barley [8, 25]: 15 | Plant response rating, Barley [8, 22]: 20 | Plant response rating, Barley ([8]; 250 g ai/ha, scale 0 to 100): 35 | Plant response rating, Canarygrass [9, 24]: 30 | Plant response rating, Canarygrass [9, 25]: 50 | Plant response rating, Canarygrass [9, 22]: 60 | Plant response rating, Canarygrass ([9]; 250 g ai/ha, scale 0 to 100): 90 | Plant response rating, Windgrass [10, 24]: 30 | Plant response rating, Windgrass [10, 25]: 45 | Plant response rating, Windgrass [10, 22]: 50 | Plant response rating, Windgrass ([10]; 250 g ai/ha, scale 0 to 100): 50 | Plant response rating, Deadnettle [11, 24]: 40 | Plant response rating, Deadnettle [11, 25]: 80 | Plant response rating, Deadnettle [11, 22]: 90 | Plant response rating, Deadnettle ([11]; 250 g ai/ha, scale 0 to 100): 100

Cc1nn(-c2ccnc(Cl)c2)nc1Cc1ccnc(C(F)(F)F)c1 [Compound 141]
Plant response rating, Foxtail, Green [1, 12]: 100 | Plant response rating, Foxtail, Green [1, 19]: 100 | Plant response rating, Foxtail, Green [1, 13]: 100 | Plant response rating, Foxtail, Green [1, 14]: 100 | Plant response rating, Bermudagrass [2, 12]: 15 | Plant response rating, Bermudagrass [2, 13]: 55 | Plant response rating, Bermudagrass [2, 14]: 95 | Plant response rating, Surinam Grass [3, 12]: 15 | Plant response rating, Surinam Grass [3, 19]: 15 | Plant response rating, Surinam Grass [3, 13]: 30 | Plant response rating, Surinam Grass [3, 14]: 30 | Plant response rating, Cocklebur [4, 12]: 5 | Plant response rating, Goosegrass [5, 12]: 35 | Plant response rating, Goosegrass [5, 19]: 40 | Plant response rating, Goosegrass [5, 13]: 50 | Plant response rating, Goosegrass [5, 14]: 60 | Plant response rating, Barley [8, 24]: 5 | Plant response rating, Barley [8, 25]: 10 | Plant response rating, Barley [8, 22]: 15 | Plant response rating, Barley ([8]; 250 g ai/ha, scale 0 to 100): 30 | Plant response rating, Canarygrass [9, 24]: 20 | Plant response rating, Canarygrass [9, 25]: 25 | Plant response rating, Canarygrass [9, 22]: 50 | Plant response rating, Canarygrass ([9]; 250 g ai/ha, scale 0 to 100): 80 | Plant response rating, Windgrass [10, 24]: 50 | Plant response rating, Windgrass [10, 25]: 50 | Plant response rating, Windgrass [10, 22]: 55 | Plant response rating, Windgrass ([10]; 250 g ai/ha, scale 0 to 100): 60 | Plant response rating, Deadnettle [11, 24]: 100 | Plant response rating, Deadnettle [11, 25]: 100 | Plant response rating, Deadnettle [11, 22]: 100 | Plant response rating, Deadnettle ([11]; 250 g ai/ha, scale 0 to 100): 100

Cc1nn(-c2ccc(F)cc2F)nc1Oc1ccnc(C(F)(F)F)c1 [Compound 146]
Plant response rating, Foxtail, Green [1, 15]: 90 | Plant response rating, Foxtail, Green [1, 16]: 90 | Plant response rating, Foxtail, Green [1, 17]: 90 | Plant response rating, Foxtail, Green [1, 18]: 90 | Plant response rating, Bermudagrass [2, 15]: 98 | Plant response rating, Bermudagrass [2, 16]: 98 | Plant response rating, Bermudagrass [2, 17]: 98 | Plant response rating, Bermudagrass [2, 18]: 98 | Plant response rating, Surinam Grass [3, 15]: 10 | Plant response rating, Surinam Grass [3, 16]: 20 | Plant response rating, Surinam Grass [3, 17]: 100 | Plant response rating, Surinam Grass [3, 18]: 100 | Plant response rating, Cocklebur [4, 15]: 0 | Plant response rating, Cocklebur [4, 16]: 0 | Plant response rating, Cocklebur [4, 17]: 0 | Plant response rating, Cocklebur [4, 18]: 0 | Plant response rating, Goosegrass [5, 15]: 70 | Plant response rating, Goosegrass [5, 16]: 85 | Plant response rating, Goosegrass [5, 17]: 100 | Plant response rating, Goosegrass [5, 18]: 100 | Plant response rating, Nightshade [6, 21]: 35 | Plant response rating, Nightshade [6, 22]: 90 | Plant response rating, Nightshade [6, 23]: 98 | Plant response rating, Sunflower [7, 20]: 10 | Plant response rating, Sunflower [7, 21]: 20 | Plant response rating, Sunflower [7, 22]: 30 | Plant response rating, Sunflower [7, 23]: 35
